Test results published in patent US7572770B2, “Use of an interleukin 1 receptor antagonist and/or pyrrolidinedithiocarbamate for the treatment or prophylaxis of type 2 diabetes” (University of Zurich, priority 2002, dated 2009).

Columns and labels:
[1] = system: diabetes-prone Psammomys obesus; experiment: Diabetes-prone Psammomys obesus on high-energy diet treated with phlorizin; assay type: in vivo
Description: Animals. Psammomys obesus of both sexes (age 2.0-3.5 months) from the diabetes-prone and diabetes-resistant lines of the Hebrew University colonies were obtained from Harlan (Jerusalem, Israel). After weaning, diabetes-prone Psammomys obesus were maintained on a low-energy diet containing 2.38 kcal/g (Koffolk, Petach Tikva, Israel) until the start of the experiments, whereas diabetes-resistant Psammomys obesus were maintained on a […] (Weizmann Institute, Rehovot, Israel) to identify animals that develop diabetes and exclude them from the study (˜30-40% of the animals in the diabetes-resistant colony). All non-fasted animals with random blood glucose concentrations <7.8 mmol/l (Glucometer Elite, Bayer Diagnostics, Elkart, Ind.) were considered nondiabetic. Diabetes-prone Psammomys obesus switched to a high-energy diet, received an injection of 0.4 g/kg phlorizin (Sigma) or solvent (40% propylene glycol) every 12 h and were killed after 8 days. Psammomys obesus were anesthetized with ketamine (Ketalar, Park-Davis, Gwent, U.K.) and exsanguinated by cardiac puncture. The pancreas was rapidly removed, and immersion-fixed in 10% phosphate-buffered formalin. The animal studies were approved by the Institutional Animal Care and Use Committee of the Hebrew University and the Hadassah Medical Organization.
Detection of IL-1β expressing β-cells. Pancreases from routine necropsies and pancreases from Psammomys obesus were immersion-fixed in formalin, followed by paraffin embedding. Sections were deparaffinized and rehydrated, and endogenous peroxidase blocked by submersion in 0.3% H2O2 for 15 min. Sections were then incubated in methanol for 4 min. After washing with PBS, cultured islets and isolated β-cells were fixed in 4% paraformaldehyde (30 min, room temperature) followed by permeabilisation with 0.5% triton X-100 (4 min, room temperature). Both tissue sections and cultured cells were double-labeled for IL-1β and insulin by 1 h exposure to 10% bovine serum albumin, followed by incubation (1 h, 37° C.) with mouse anti-IL-1β antibody (1:30 dilution, R&D Systems Inc.). Detection was performed using donkey anti-mouse Cy3 conjugated antibody (1:100 dilution, Jackson). Subsequently, specimens were incubated for 30 min at 37° C. with guinea pig anti-insulin antibody diluted 1:50 (Dako, Carpinteria, Calif.), followed by a 30 min incubation with a 1:20 dilution of fluorescein-conjugated rabbit anti-guinea pig antibody (Dako). For positive control of IL-1β staining, human mononuclear cells were isolated as described previously (37) and exposed for 2 h, 37° C. to 1 μg/ml lipopolysaccharide (Difco, Detroit, Ind.). […]

[2] = in vivo; cited from earlier work
human islets = experiment: Insulin release and content of human islets; assay type: cell-based; conditions: 33.3 mM glucose or IL-1β, 4 days
Experimental: (§1) Islet isolation and culture. Islets were isolated from pancreases of eleven organ donors at the Department of Surgery, University of Geneva Medical Center, as described (32-34). The islet purity was >95%, as judged by dithizone staining (if this degree of purity was not primarily achieved by routine isolation, islets were handpicked). […] For long-term in vitro studies, the islets were cultured on extracellular matrix-coated plates derived from bovine corneal endothelial cells (Novamed Ltd., Jerusalem, Israel), allowing the cells to attach to the dishes and spread, preserving their functional integrity (7;35). Islets were cultured in CMRL 1066 medium containing 100 U/ml penicillin, 100 μg/ml streptomycin and 10% fetal calf serum (Gibco, Gaithersburg, Md.), hereinafter referred to as culture medium. Two days after plating, when most islets were attached and began to flatten, the medium was changed to culture medium containing 5.5, 11.1 or 33.3 mM glucose. In some experiments, islets were additionally cultured with 2 ng/ml recombinant human IL-1β, 1000 U/ml recombinant human IFNγ (ReproTech EC Ltd, London, UK), 500 ng/ml IL-1β receptor antagonist (IL-1Ra) (R&D Systems Inc., Minneapolis, Minn.), 1 ng/ml membrane bound Fas-ligand (FasL) (36) (upstate biotechnology, Lake Placid, N.Y.) or with 100 μM pyrrolidinedithiocarbamate (PDTC; Sigma; 2 h per 2 d of culture).
Insulin release and content. To determine acute insulin release in response to glucose stimulation, islets were washed in RPMI 1640 medium with 10% FCS and containing 3.3 mM glucose and pre-incubated for 1 h in the same medium. The medium was then discarded and replaced with fresh medium containing 3.3 mM glucose for 1 h for basal secretion, followed by an additional 1 h incubation in medium containing 16.7 mM glucose. Incubates were collected and frozen for insulin assays. […] Insulin was determined by a human insulin RIA kit (CIS bio international, Gif-Sur-Yvette, France).

type II IL-1R = target: T1, type II IL-1R (Homo sapiens, UniProt P27930); conditions: read-out: Kd, binding to type II IL-1R; cited from earlier work
T1 sequence (P27930 14-398): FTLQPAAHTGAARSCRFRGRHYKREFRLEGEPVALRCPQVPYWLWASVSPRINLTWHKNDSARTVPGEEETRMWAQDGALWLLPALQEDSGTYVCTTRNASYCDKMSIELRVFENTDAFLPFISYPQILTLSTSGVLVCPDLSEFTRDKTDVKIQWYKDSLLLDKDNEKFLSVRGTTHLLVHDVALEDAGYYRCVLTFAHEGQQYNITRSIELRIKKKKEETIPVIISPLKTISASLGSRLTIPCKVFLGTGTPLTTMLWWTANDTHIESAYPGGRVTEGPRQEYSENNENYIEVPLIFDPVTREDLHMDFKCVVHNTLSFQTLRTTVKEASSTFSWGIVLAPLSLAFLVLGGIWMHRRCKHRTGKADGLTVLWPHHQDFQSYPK

iNOS = iNOS expression in human islets; assay type: cell-based; conditions: 33 mM glucose or IL-1β alone, 44 hours
Experimental: Western blot analysis. Islets were cultured in a culture medium in non-adherent plastic dishes. One day after isolation, the medium was changed and groups of 200 islets were incubated for 44 hours in culture medium containing 5.5 or 33.3 mM glucose without or with 2 ng/ml IL-1β or 500 ng/ml IL-1Ra. At the end of the incubations, islets were washed in PBS, suspended in 50 μl sample buffer containing 125 mM Tris-HCl, pH 6.8, 4% SDS, 10% glycerol, 0.3% bromphenol blue, 1.8% β-mercaptoethanol and boiled for 5 min. Equivalent amounts of each treatment group were run on 15% SDS polyacrylamide gels. […] Intensity of bands was analyzed using Multianalyst™ (Bio Rad, Laboratories inc., Hercules, Calif.).
RNA extraction, RT-PCR and sequencing of RT-PCR product. […] The conditions of the PCR amplification for IL-1β and Fas were: denaturation 30 seconds at 94° C., annealing 30 seconds at 60° C. and elongation 30 seconds at 72° C., followed for real time PCR by quantification 5 seconds at 80° C., 45 cycles. […] For quantitative analysis, we used the Light Cycler quantitative PCR system (Roche, Basel, Switzerland) and performed quantitative PCR with a commercial kit (Light Cycler-DNA Master SYBR Green I; Roche). […]

human islets β-cells = experiment: β-cell apoptosis (TUNEL) and necrosis (propidium iodide) in human islets; assay type: cell-based; conditions: 33 mM glucose + exogenous FasL
Experimental: as §1
β-cell apoptosis. The free 3-OH strand breaks resulting from DNA degradation were detected by the terminal deoxynucleotidyl transferase-mediated dUTP nick-end labeling (TUNEL) technique (38). After washing with PBS, cultured islets were fixed in 4% paraformaldehyde (30 min, room temperature) followed by permeabilisation with 0.5% triton X-100 (4 min, room temperature). The TUNEL assay was performed according to the manufacturer's instructions (In Situ Cell Death Detection Kit, AP; Boehringer Mannheim, Germany). […] The samples were immediately evaluated by fluorescence microscopy for positively stained […] nuclei.

[3] = high-energy diet 8 days, 0.4 g/kg phlorizin every 12 h

Question: For O=C(CCc1ccc(O)cc1)c1c(O)cc(O)cc1O[C@@H]1O[C@H](CO)[C@@H](O)[C@H](O)[C@H]1O [phlorizin], which “IL-1β expression in β-cells” value [1, 3] is on record?
Answer: Its value is “prevented IL-1β expression”.

Question: What about the “blood glucose (in words)” value [1, 3] of the same molecule?
Answer: Its value is “Normalization of blood glucose”.

Question: And the “insulin stores of islets” value [1, 3]?
Answer: The value was “restored insulin stores”.

Question: What about the blood glucose ([1]; high-energy diet for 8 days with injections of phlorizin) of the same molecule?
Answer: Its blood glucose is 5.6 mM.

Question: For anakinra, which half-life [2] is on record?
Answer: Its half-life is 4 to 6 h.

Question: With Interleukin-1β [IL-1β] as the molecule, how does the “acute glucose-stimulated insulin release after chronic exposure” value (human islets) read?
Answer: Its value is “abolished acute glucose-stimulated insulin release”.

Question: What about the Kd (type II IL-1R) of the same molecule?
Answer: The Kd was 0.3 to 2 nM.

Question: And the “iNOS mRNA or protein expression” value (iNOS)?
Answer: Its value is “Neither 33 mM glucose nor IL-1β alone induced iNOS mRNA”.

B1: FasL: membrane bound Fas-ligand (protein, UniProt P48023 1-281, looked up)
chain: MQQPFNYPYPQIYWVDSSASSPWAPPGTVLPCPTSVPRRPGQRRPPPPPPPPPLPPPPPPPPLPPLPLPPLKKRGNHSTGLCLLVMFFMVLVALVGLGLGMFQLFHLQKELAELRESTSQMHTASSLEKQIGHPSPPPEKKELRKVAHLTGKSNSRSMPLEWEDTYGIVLLSGVKYKKGGLVINETGLYFVYSKVYFRGQSCNNLPLSHKVYMRNSKYPQDLVMMEGKMMSYCTTGQMWARSSYLGAVFNLTSADHLYVNVSELSLVNFEESQTFFGLYKL
modifications: full-length
Question: Which “increase of TUNEL-positive β-cells compared to control at 5.5 mM glucose” value (human islets β-cells) does the source give for B1 here?
Answer: Its value is 3.0+/−0.4 fold.
